Source: patent publication US5607937A, “Piperazides of substituted phenylalanine derivatives as thrombin inhibitors” (priority 1993, dated 1997)
pKi: −log10 of the molar value. Read-outs that look alike come from different tables or passages of the source.

Experiments:
[1] = system: coagulation in human plasma; assay: prothrombin time (PT, Quick value) in human plasma
[2] = target: plasma kallikrein (Homo sapiens, UniProt P03952); assay: inhibition of plasma kallikrein, dissociation constant Ki
[3] = plasma concentration in rats after intravenous administration; type: in vivo; conditions: rat; for concentration at 0.25 h: 15 min; for concentration at 0.5 h: 30 min; for concentration at 1 h: 60 min; for elimination in words: i.v.
Description: A physiological NaCl solution of the substance to be tested was submitted to high pressure liquid chromatography (HPLC) in order to determine its characteristic substance-specific retention time with the chosen test conditions.
The substance to be tested was diluted in vitro in rat plasma. This solution was also submitted to HPLC to see whether the characteristic peak of the substance once again appeared at the substance-specific retention time.
Blood samples were taken at time intervals of 15 minutes, from which plasma samples were prepared by centrifugation; those samples were also submitted to HPLC to see whether the characteristic peak of the substance appeared again at the substance-specific retention time.
After administration, blood samples were taken from the test animals at time intervals from 2 to maximally 360 minutes and the blood level of the compounds to be tested was determined by HPLC.

[4] = target: plasmin (Homo sapiens, UniProt P00747); assay: inhibition of plasmin, dissociation constant Ki
[5] = target: T1, factor XIIa (Homo sapiens, UniProt P00748); assay: inhibition of factor XIIa, dissociation constant Ki
T1 sequence (P00748 373-615 limits assumed): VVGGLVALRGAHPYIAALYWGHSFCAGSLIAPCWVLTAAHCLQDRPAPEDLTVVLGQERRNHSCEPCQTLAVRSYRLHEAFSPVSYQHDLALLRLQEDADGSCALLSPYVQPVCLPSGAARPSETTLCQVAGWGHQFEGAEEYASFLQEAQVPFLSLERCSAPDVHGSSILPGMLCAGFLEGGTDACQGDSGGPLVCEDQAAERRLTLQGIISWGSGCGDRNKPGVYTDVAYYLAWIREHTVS

[6] = target: tPA (Homo sapiens, UniProt P00750); assay: inhibition of tPA, dissociation constant Ki
[7] = system: coagulation in human plasma; assay: thrombin time (TT) in human plasma
[8] = system: coagulation in human plasma; assay: activated partial thromboplastin time (aPTT) in human plasma
[9] = plasma concentration in rats after oral administration; type: in vivo; conditions: rat; for resorption in words: oral
[10] = target: glandular kallikrein (Sus scrofa, UniProt P00752); assay: inhibition of glandular kallikrein, dissociation constant Ki
[11] = target: factor Xa (Bos taurus, UniProt P00743); assay: inhibition of factor Xa, dissociation constant Ki; type: biochemical; conditions: Table 1
Description: (§1) The biological activity of the compounds of the present invention was determined in vitro as well as in vivo.

[12] = plasma concentration in rats after rectal administration; type: in vivo; conditions: rat; for concentration at 0.5 h: 30 min; for concentration at 1 h: 60 min; for concentration at 2 h: 120 min; for concentration at 3 h: 180 min
[13] = concentration in rat plasma in the anticoagulant study after rectal application; type: in vivo; conditions: for concentration at 0.5 h / concentration at 1 h / concentration at 2 h / concentration at 3 h: plasma; for concentration at 0.5 h: 30 min; for concentration at 1 h: 60 min; for concentration at 2 h: 120 min; for concentration at 3 h: 180 min; for Concentration in plasma: 0 min
[14] = system: coagulation in rat plasma; assay: thrombin time in rat plasma after rectal application; type: in vivo
Description: (§2) After rectal administration of the compounds to be tested, the anticoagulant effect was determined in the plasma of experimental animals.

[15] = in vivo; conditions: rat, intraduodenal 100 mg/kg; for Concentration in plasma: hydrochloride, 100 mg/kg
[16] = system: coagulation in rat plasma; assay: aPTT in rat plasma after rectal application; type: in vivo
Description: as §2

[17] = target: T2, trypsin (Bos taurus, UniProt P00760); assay: inhibition of trypsin, dissociation constant Ki; type: biochemical; design: thrombin and the related enzymes trypsin, plasmin, factor Xa, factor XIIa; conditions: Table 1; read-out: Ki, Trypsin
T2 sequence (P00760 24-246): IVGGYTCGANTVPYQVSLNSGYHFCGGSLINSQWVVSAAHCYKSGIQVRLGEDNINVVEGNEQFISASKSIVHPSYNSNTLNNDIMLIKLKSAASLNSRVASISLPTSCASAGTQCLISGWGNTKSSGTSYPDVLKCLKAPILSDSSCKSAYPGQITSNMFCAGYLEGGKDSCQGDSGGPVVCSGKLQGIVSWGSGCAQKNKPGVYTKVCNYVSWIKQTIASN
Description: as §1

Sequence of plasmin (P00747 581-810 limits assumed): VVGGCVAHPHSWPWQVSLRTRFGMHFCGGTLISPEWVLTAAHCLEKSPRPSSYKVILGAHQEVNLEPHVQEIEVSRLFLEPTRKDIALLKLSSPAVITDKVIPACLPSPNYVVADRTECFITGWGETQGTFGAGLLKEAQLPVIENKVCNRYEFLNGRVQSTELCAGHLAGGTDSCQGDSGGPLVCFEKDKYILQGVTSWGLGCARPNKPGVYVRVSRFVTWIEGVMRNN
Sequence of plasmin (P00747 97-580 partner limits assumed): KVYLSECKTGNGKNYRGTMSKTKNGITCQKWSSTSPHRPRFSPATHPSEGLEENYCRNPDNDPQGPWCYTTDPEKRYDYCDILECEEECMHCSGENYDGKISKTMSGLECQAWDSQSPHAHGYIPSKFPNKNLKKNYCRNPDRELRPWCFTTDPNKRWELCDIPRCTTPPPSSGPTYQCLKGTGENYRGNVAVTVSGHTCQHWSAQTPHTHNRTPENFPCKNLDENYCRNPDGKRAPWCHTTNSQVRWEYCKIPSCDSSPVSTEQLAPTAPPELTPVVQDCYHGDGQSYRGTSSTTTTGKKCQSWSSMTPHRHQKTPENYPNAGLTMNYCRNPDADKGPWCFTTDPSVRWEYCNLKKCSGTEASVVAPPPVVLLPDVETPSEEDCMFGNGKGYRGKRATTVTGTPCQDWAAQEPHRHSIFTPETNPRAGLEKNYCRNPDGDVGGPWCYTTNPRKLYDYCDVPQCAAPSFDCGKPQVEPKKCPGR
Sequence of glandular kallikrein (P00752 8-246): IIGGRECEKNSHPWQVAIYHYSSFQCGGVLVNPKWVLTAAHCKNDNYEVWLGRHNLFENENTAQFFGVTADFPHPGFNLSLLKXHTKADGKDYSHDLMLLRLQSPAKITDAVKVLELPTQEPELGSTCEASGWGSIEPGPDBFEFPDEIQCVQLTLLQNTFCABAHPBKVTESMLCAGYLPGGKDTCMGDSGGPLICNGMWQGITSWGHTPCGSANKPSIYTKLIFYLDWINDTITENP
Sequence of plasma kallikrein (P03952 391-638 limits assumed, species assumed): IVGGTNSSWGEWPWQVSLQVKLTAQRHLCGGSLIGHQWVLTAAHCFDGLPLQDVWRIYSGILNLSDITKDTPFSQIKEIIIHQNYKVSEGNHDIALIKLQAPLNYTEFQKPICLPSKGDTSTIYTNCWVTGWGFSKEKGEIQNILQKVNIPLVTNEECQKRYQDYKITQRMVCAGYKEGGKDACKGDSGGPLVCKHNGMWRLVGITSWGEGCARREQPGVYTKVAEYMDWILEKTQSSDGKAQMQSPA
Sequence of plasma kallikrein (P03952 20-390 partner limits assumed, species assumed): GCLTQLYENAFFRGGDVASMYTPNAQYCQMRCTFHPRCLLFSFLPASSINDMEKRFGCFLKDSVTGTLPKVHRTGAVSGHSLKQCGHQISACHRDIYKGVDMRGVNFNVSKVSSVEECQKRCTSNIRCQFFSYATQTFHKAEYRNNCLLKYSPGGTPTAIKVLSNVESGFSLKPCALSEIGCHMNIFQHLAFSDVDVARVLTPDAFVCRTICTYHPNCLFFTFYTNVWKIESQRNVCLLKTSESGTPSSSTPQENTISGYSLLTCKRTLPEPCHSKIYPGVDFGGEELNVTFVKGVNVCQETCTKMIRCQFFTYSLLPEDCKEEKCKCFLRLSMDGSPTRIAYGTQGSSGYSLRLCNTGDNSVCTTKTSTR
Sequence of tPA (P00750 36-562): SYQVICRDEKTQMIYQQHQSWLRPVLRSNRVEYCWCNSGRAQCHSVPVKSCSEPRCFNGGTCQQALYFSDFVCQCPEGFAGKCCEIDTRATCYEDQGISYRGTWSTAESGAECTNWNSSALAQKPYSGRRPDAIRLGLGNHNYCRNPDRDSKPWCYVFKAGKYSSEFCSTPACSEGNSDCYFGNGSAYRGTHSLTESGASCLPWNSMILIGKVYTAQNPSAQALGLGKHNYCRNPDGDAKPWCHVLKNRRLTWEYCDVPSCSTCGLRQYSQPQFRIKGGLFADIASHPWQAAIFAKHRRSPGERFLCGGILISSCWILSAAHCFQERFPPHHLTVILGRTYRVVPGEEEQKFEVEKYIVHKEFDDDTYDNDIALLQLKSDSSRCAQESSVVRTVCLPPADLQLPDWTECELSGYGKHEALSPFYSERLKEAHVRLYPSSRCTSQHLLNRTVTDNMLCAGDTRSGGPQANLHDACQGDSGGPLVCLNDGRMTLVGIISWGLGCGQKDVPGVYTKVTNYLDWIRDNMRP
Sequence of factor Xa (P00743 234-492 limits assumed): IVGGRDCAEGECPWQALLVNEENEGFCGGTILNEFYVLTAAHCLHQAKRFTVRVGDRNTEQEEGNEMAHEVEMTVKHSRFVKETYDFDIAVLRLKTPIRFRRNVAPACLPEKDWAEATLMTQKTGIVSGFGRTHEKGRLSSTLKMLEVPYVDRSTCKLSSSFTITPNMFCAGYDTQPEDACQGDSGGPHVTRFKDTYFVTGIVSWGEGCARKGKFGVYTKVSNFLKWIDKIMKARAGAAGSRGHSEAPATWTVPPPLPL
Sequence of factor Xa (P00743 41-180 partner limits assumed): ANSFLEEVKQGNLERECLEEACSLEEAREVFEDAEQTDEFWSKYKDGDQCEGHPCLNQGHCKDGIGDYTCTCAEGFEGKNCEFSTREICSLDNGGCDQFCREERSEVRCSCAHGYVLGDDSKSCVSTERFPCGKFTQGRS

For `CC(=O)N1CCN(C(=O)C(Cc2cccc(C(=N)N)c2)NS(=O)(=O)c2ccc3ccccc3c2)CC1` (centres unmarked) [Compound 1], the “Concentr. to double the Prothrombin time” value [1] was 2.5 µmol/L, the “concentration to double the PT” value [1] was no more than 1 μmol/1 and the pKi [2] was 4.55. The concentration at 5 min ([3]; plasma, iv, i.v. 1 mg/kg) was 1060 ng/mL, the concentration at 0.25 h ([3]; plasma, iv, i.v. 1 mg/kg) was 394 ng/mL and the concentration at 0.5 h ([3]; plasma, iv, i.v. 1 mg/kg) was 150 ng/mL. For the same compound, the concentration at 1 h ([3]; plasma, iv, i.v. 1 mg/kg) was 89 ng/mL, the concentration at 2 h ([3]; plasma, iv, i.v. 1 mg/kg, 120 min) was 74 ng/mL and the concentration at 3 h ([3]; plasma, iv, i.v. 1 mg/kg, 180 min) was 51 ng/mL. For the same compound, the elimination in words [3] was “eliminated at comparable rate”, the pKi ([4]; read-out: Ki, Plasmin, Table 1) was 5.08 and the pKi [5] was 3.68. The pKi [6] was less than 3.00, the “Concentr. to double the Thrombin time” value [7] was 0.095 µmol/L and the “concentration to double the TT” value [7] was “less than 10^-7 mol/1”. For the same compound, the “Concentr. to double the aPTT” value [8] was 0.90 µmol/L, the “concentration to double the aPTT” value [8] was no more than 1 μmol/1 and the concentration at 0.5 h ([9]; plasma, oral 50 mg/kg, 30 min) was 87 ng/mL. It also gave a concentration at 1 h ([9]; plasma, oral 50 mg/kg, 60 min) of 63 ng/mL, a concentration at 2 h ([9]; plasma, oral 50 mg/kg, 120 min) of 57 ng/mL and a concentration at 3 h ([9]; plasma, oral 50 mg/kg, 180 min) of 69 ng/mL. The concentration at 4 h ([9]; plasma, oral 50 mg/kg, 240 min) was 91 ng/mL, the concentration at 5 h ([9]; plasma, oral 50 mg/kg, 300 min) was 61 ng/mL and the resorption in words [9] was “only slightly resorbed”. For the same compound, the pKi [10] was less than 3.00, the pKi [11] was 4.32 and the concentration at 0.5 h ([12]; plasma, rectal 100 mg/kg) was 31400 ng/mL. The concentration at 1 h ([12]; plasma, rectal 100 mg/kg) was 17900 ng/mL, the concentration at 2 h ([12]; plasma, rectal 100 mg/kg) was 3780 ng/mL and the concentration at 3 h ([12]; plasma, rectal 100 mg/kg) was 1080 ng/mL. For the same compound, the concentration at 4 h ([12]; plasma, rectal 100 mg/kg, 240 min) was 438 ng/mL, the concentration at 5 h ([12]; plasma, rectal 100 mg/kg, 300 min) was 220 ng/mL and the concentration at 6 h ([12]; plasma, rectal 100 mg/kg, 360 min) was 158 ng/mL. The “detectable in plasma after rectal administration” value ([12]; rectal) was no less than 6 h.
For `CS(=O)(=O)N1CCN(C(=O)[C@H](Cc2cccc(C(=N)N)c2)NS(=O)(=O)c2ccc3ccccc3c2)CC1.Cl` [Compound 5, Nα-(2-naphthylsulfonyl)-3-amidino-(L)-phenylalanine-4methylsulfonylpiperazide hydrochloride], the “Concentr. to double the Prothrombin time” value [1] was 0.39 µmol/L, the “concentration to double the PT” value [1] was no more than 1 μmol/1 and the concentration at 0.5 h ([13]; rectal 5 mg/kg) was 168 ng/mL. It also gave a concentration at 1 h ([13]; rectal 5 mg/kg) of 65 ng/mL, a concentration at 2 h ([13]; rectal 5 mg/kg) of 82 ng/mL and a concentration at 3 h ([13]; rectal 5 mg/kg) of 10 ng/mL. For the same compound, the concentration at 0.5 h ([13]; rectal 20 mg/kg) was 1570 ng/mL, the concentration at 1 h ([13]; rectal 20 mg/kg) was 983 ng/mL and the concentration at 2 h ([13]; rectal 20 mg/kg) was 380 ng/mL. The concentration at 3 h ([13]; rectal 20 mg/kg) was 195 ng/mL, the Concentration in plasma ([13]; rectal 5 mg/kg) was 0 ng/mL and the Concentration in plasma ([13]; rectal 20 mg/kg) was 0 ng/mL. For the same compound, the “Clotting time, Thrombin time” value ([14]; rectal 5 mg/kg, 0 min) was 51.5 s, the “Clotting time, Thrombin time” value ([14]; rectal 5 mg/kg, 30 min) was greater than 300 s and the “Clotting time, Thrombin time” value ([14]; rectal 5 mg/kg, 60 min) was 255 s. For the same compound, the “Clotting time, Thrombin time” value ([14]; rectal 5 mg/kg, 120 min) was 137.5 s, the “Clotting time, Thrombin time” value ([14]; rectal 5 mg/kg, 180 min) was 95 s and the “Clotting time, Thrombin time” value ([14]; rectal 20 mg/kg, 0 min) was 153 s. For the same compound, the “Clotting time, Thrombin time” value ([14]; rectal 20 mg/kg, 30 min) was greater than 300 s, the “Clotting time, Thrombin time” value ([14]; rectal 20 mg/kg, 60 min) was greater than 300 s and the “Clotting time, Thrombin time” value ([14]; rectal 20 mg/kg, 120 min) was greater than 300 s. For the same compound, the “Clotting time, Thrombin time” value ([14]; rectal 20 mg/kg, 180 min) was greater than 300 s, the pKi [2] was 5.04 and the concentration at 5 min ([3]; plasma, iv, i.v. 1 mg/kg) was 879 ng/mL. The concentration at 0.25 h ([3]; plasma, iv, i.v. 1 mg/kg) was 367 ng/mL, the concentration at 0.5 h ([3]; plasma, iv, i.v. 1 mg/kg) was 151 ng/mL and the concentration at 1 h ([3]; plasma, iv, i.v. 1 mg/kg) was 50 ng/mL. The elimination in words [3] was “eliminated at comparable rate”, the Concentration in plasma ([3]; i.v. 1 mg/kg, 120 min) was 0 ng/mL and the Concentration in plasma ([3]; i.v. 1 mg/kg, 180 min) was 0 ng/mL. It also gave a pKi [4] of 5.05, a pKi [5] of 4.28 and a pKi [6] of 3.72. The concentration at 3 h ([15]; plasma, 180 min) was 297 ng/mL, the concentration at 4 h ([15]; plasma, 240 min) was 530 ng/mL and the concentration at 5 h ([15]; plasma, 300 min) was 137 ng/mL. For the same compound, the concentration at 6 h ([15]; plasma, 360 min) was 119 ng/mL, the Concentration in plasma ([15]; 30 min) was 8744 ng/mL and the Concentration in plasma ([15]; 30 min, listed as 5*) was 1576 ng/mL. It also gave a Concentration in plasma ([15]; 60 min) of 9314 ng/mL, a Concentration in plasma ([15]; 60 min, listed as 5*) of 1900 ng/mL and a Concentration in plasma ([15]; 120 min) of 8612 ng/mL. The Concentration in plasma ([15]; 120 min, listed as 5*) was 1763 ng/mL, the “Concentr. to double the Thrombin time” value [7] was 0.034 µmol/L and the “concentration to double the TT” value [7] was “less than 10^-7 mol/1”. The “Concentr. to double the aPTT” value [8] was 0.26 µmol/L, the “concentration to double the aPTT” value [8] was no more than 1 μmol/1 and the “Clotting time, aPTT” value ([16]; rectal 5 mg/kg, 0 min) was 21.2 s. For the same compound, the “Clotting time, aPTT” value ([16]; rectal 5 mg/kg, 30 min) was 34.5 s, the “Clotting time, aPTT” value ([16]; rectal 5 mg/kg, 60 min) was 30.5 s and the “Clotting time, aPTT” value ([16]; rectal 5 mg/kg, 120 min) was 27.5 s. The “Clotting time, aPTT” value ([16]; rectal 5 mg/kg, 180 min) was 25.3 s, the “Clotting time, aPTT” value ([16]; rectal 20 mg/kg, 0 min) was 22 s and the “Clotting time, aPTT” value ([16]; rectal 20 mg/kg, 30 min) was 65 s. The “Clotting time, aPTT” value ([16]; rectal 20 mg/kg, 60 min) was 62.5 s, the “Clotting time, aPTT” value ([16]; rectal 20 mg/kg, 120 min) was 36 s and the “Clotting time, aPTT” value ([16]; rectal 20 mg/kg, 180 min) was 29.7 s. The resorption in words [9] was “only slightly resorbed”, the pKi [17] was 7.17 and the pKi [10] was less than 3.00. The concentration at 0.5 h ([12]; plasma, rectal 20 mg/kg) was 1650 ng/mL, the concentration at 1 h ([12]; plasma, rectal 20 mg/kg) was 958 ng/mL and the concentration at 2 h ([12]; plasma, rectal 20 mg/kg) was 299 ng/mL. It also gave a concentration at 3 h ([12]; plasma, rectal 20 mg/kg) of 192 ng/mL.
